Assay results as given in patent publication EP1228077B1, “RUTHENIUM (II) COMPLEXES WITH HIGH ANTITUMORAL AND ANTIMETASTATIC ACTIVITIES” (priority 1999, dated 2001).

Legend:
Assay type in all cases: in vivo
[1] = Example 8: systemic toxicity (body weight) in tumour-bearing mice
Experimental: Four groups each composed of 6 CBA/Lac kin female […] weighing 23±3 g. were inoculated on day 0 with tumour cells according to the protocol described in the previous examples. From day 12 to day 17, after tumour implantation, the four groups of mice were treated intraperitoneally using a sterile insulin syringe, respectively with: • Group 1: Control: 10 ml/kg body weight/die of sterile and pyrogen-free physiological solution; • Group 2: ASC: 6.69 mg/kg body weight/die of ascorbic acid in sterile and pyrogen-free physiological solution; • Group 3: RUT: 35 mg/kg body weight/die of Ruthenium (III) complex, (lmH)[trans-RuCl4(Me2SO)(Im)] in sterile and pyrogen-free physiological solution; • Group 4: RUT+ASC: 35 mg/kg body weight/die of Ruthenium (III) complex (lmH)[trans-RuCl4(Me2SO)(lm)] and 6.69 mg/kg body weight/ die of ascorbic acid in sterile and pyrogen-free physiological saline solution.
The reducing agent (ascorbic acid) was used in a equivalent ratio of 1 with the Ruthenium (III) complex. The redox reaction was immediate.
The administration took place after analytical control of the complete reduction of the Ruthenium (III) complex to Ruthenium (II).
On day 18 from tumour implantation, the primary tumour and the spleen were removed and weighed, as described previously.
The experiment confirms the lower toxicity of the Ruthenium (II) complexes of the invention (group 4) with respect to the prior art Ruthenium (III) complexes (group 3).

[2] = system: MCa mammary carcinoma; experiment: Example 4: prevention of lung metastases in mice with MCa mammary carcinoma; conditions: lung metastases on day 21, i.p. treatment day 12 to 17; for Metastases Number: CBA/Lac female mice, 6 per group
Experimental: Six groups composed of 6 CBA\Lac kin female mice, weighing 23±3 g were inoculated on day 0 with 10^6 viable cells (as determined with Trypan blue-exclusion test) of MCa mammary carcinoma, in 0.05 ml volume of Dulbecco's buffered at pH 7.4 calcium and magnesium-free saline physiological solution (D-PBS), by intramuscular injection with a sterile insulin syringe. The tumour cells derive from donors of the same strain, were transplanted with an insulin sterile syringe accordingly to the same procedure two weeks before. The tumour cells in PBS suspension were prepared by mechanical mincing of the tumour mass obtained from donor mice and by further removing tissue and cell debris by filtration through a double layer of sterile gauze and further centrifugation at 250xg for 10 minutes. The kin animals were derived from a colony obtained from Chester Beatthy, London (UK) and grown in the University of Trieste pound according to the procedures for the rearing of kin animals. The MCa mammary carcinoma tumour line derives from a stock, kept in liquid nitrogen, of tumour cells obtained originally from Rudjer Boskovic Institute, Zagreb (HR).
From day 12 to day 17 after tumour implantation, the six groups of mice were treated intraperitoneally using an insulin sterile syringe, respectively with: • Group 1. Control: […] body weight/die of sterile pyrogen-free physiological solution; • Group 2. ASC: 6.69 mg/kg body weight/die of ascorbic acid in sterile and pyrogen-free physiological solution; • Group 3. CYST: 12 mg/kg body weight/die of […] in sterile and pyrogen-free physiological solution; • Group 4. RUT: 35 mg/kg body weight/die of Ruthenium (III) complex, (lmH)[trans-RuCl4(Me2SO)(Im)] in pyrogen-free and sterile physiological solution; • Group 5. RUT-ASC: 35 mg/kg body weight/die of the Ruthenium (III) complex, (ImH)[trans-RuCl4(Me2SO)(Im)] and 12 mg/kg body weight/die of cysteine in sterile and pyrogen-free physiological saline solution; • Group 6. RUT-CYST: 35 mg/kg body weight/die of the Ruthenium (III) complex, (ImH)[trans-RuCl4(Me2SO)(Im)] and 12 mg/kg body weight/die of cysteine in sterile and pyrogen-free physiological saline solution.
The reducing agents ascorbic acid and cysteine were used in a equivalent ratio corresponding to 1 with the Ruthenium (III) complex. The redox reaction was immediate. The administration took place after analytical control of the complete reduction of the Ruthenium (III) complex to Ruthenium (II).
(§1) On day 17 from tumour implantation, the growth of the primary tumour was evaluated and the tumor surgically removed after general anaesthesia of the animals with ketamine. The tumor size was determined by measuring both orthogonal axes of the tumour by means of a caliber, the weight in grams of the rotation solid developed around these axes was measured, considering the tumour density equal to 1 and using the formula. (π/6).a^2.b, wherein a was the minor and b the major axis.
On day 21 from tumour implantation, the mice were sacrificed by cervical dislocation and lung metastases were analyzed. The lungs removed from the animal immediately after sacrifice, were divided in single lobes, which were then examined immediately with a low-magnification microscope equipped with an ocular-grid for the measurement of the metastases sizes from which the two orthogonal a and b axes (with a ≤b) are identified. The metastases were then grouped on the basis of their dimensions and the metastatic tumour weight was calculated as the sum of the weight of each single metastasis, each of them regarded as a rotation solid developed around the above mentioned axes, and with a volume calculated by the same formula used for the primary tumour. The experimental data obtained were therefore processed by appropriate statistical tests. The results are reported in Table 1 wherein the number and weight of lung metastases obtained in each group of animal are shown.

[3] = system: MCa mammary carcinoma; experiment: Example 7: primary tumour weight variation in mice with MCa mammary carcinoma; conditions: weight variation with respect to the controls, day 11 to day 17; i.p. treatment day 11 to 16
Experimental: as §1
Four groups, each of them composed of 7 CBA/Lac-kin female mice weighing 23±3 g on day 0 were inoculated with MCa mammary carcinoma cells according to the protocol described in the previous examples. […]
(§2) On day 17 from tumour implantation, the mice were sacrificed, the primary tumour and the spleen were removed and analysed as in the previous example. […]

[4] = Example 7: systemic toxicity (body weight, spleen weight) in tumour-bearing mice
Experimental: Four groups, each of them composed of 7 CBA/Lac-kin female mice weighing 23±3 g on day 0 were inoculated with MCa mammary carcinoma cells according to the protocol described in the previous examples. From day 11 to day 16 after tumour implantation, the four groups of mice were treated intraperitoneally using a sterile insulin syringe, respectively with: • Group 1: Control: 10 ml/kg body weight/die of sterile and pyrogen-free physiological solution; • Group 2: CYST: 2 mg/kg body weight/die of cysteine in sterile and pyrogen-free physiological solution; • Group 3: RUT: 35 mg/kg body weight/die of Ruthenium (III) complex (lmH)[trans-RuCl4(Me2SO)(Im)] in sterile and pyrogen-free physiological solution; • Group 4: RUT-CYST: 35 mg/kg body weight/die of Ruthenium (III) complex , (ImH)[trans-RuCl4(Me2SO)(lm)] and 12 mg/kg body weight/die of cysteine in sterile and pyrogen-free physiological solution.
The reducing agent (cysteine) was used in a equivalent ratio of 1with the Ruthenium (III) complex. The redox reaction was immmediate.
The administration took place after analytical control of the complete reduction of the Ruthenium (III) to Ruthenium (II) complexes.
as §2
The data reported in the Table 4 indicate how the body weight and the spleen weight, which are indicators of the systemic toxicity of the treatment, turned out to be more similar to the control (group 1) when the mice were treated with the Ruthenium (II) complexes according to the invention (group 4) than when treated with Ruthenium (III) (group 3) only.

[5] = system: Lewis lung carcinoma (LLC); experiment: Example 6: lung metastases in BD2F1 mice with Lewis lung carcinoma; conditions: day 20; treatment day 8 to 13
Experimental: Groups of 7 BD2F1 female mice were inoculated by means of intramuscular injection on day 0 with cells of Lewis lung carcinoma (LLC). From day 8 to day 13 the animals were treated with the Ruthenium (III) complex [trans-RuCl4(DMSO)(lm)](lmH), (compound of formula II) and with the Ruthenium (II) complex, trans-RuCl2(DMSO)4, both belonging to the state of the art. On day 20 from tumour implantation, the mice were sacrificed and the metastases evaluated. All the procedures of the experiments were carried out as reported in the previous examples.

[6] = system: MCa mammary carcinoma; experiment: Example 5: prevention of lung metastases in mice with MCa mammary carcinoma; conditions: lung metastases on day 23, i.p. treatment day 10 to 15; for Metastases Number: CBA/Lac female mice, 7 per group
Experimental: In a further experiment similar to the previous one, six groups of animals, each of them composed of 7 CBA/Lac kin female mice, weighing 23±3 g were inoculated on day 0 with cells of MCa mammary carcinoma, according to the protocol described in the previous example. From day 10 to day 15 after tumour implantation, the 6 groups of mice were treated intraperitoneally using a sterile insulin syringe, respectively with: • Group 1: […] RUT: 35 mg/kg body weight/die of Ruthenium (III) complex, (ImH)[trans-RuCl4(Me2SO)(Im)] in sterile and pyrogen-free physiological saline solution; • Group 5: […] The reducing agents glutathione and cysteine were used in an equivalent ratio of 1 with the Ruthenium (III) complex. The redox reaction was immediate. The administration took place after the analytical control of total reduction of the Ruthenium (III) to Ruthenium (II) complexes. On day 16 from tumour implantation, the growth of the primary tumour as described in the previous example was evaluated. On day 23 from tumour implantation, the mice were sacrificed and the metastases were evaluated as in previous example. The experimental data obtained were processed by appropriate statistical tests and reported in Table 2, wherein the number and weight of lung metastases obtained in the treated group of animals are also reported.

[7] = day 17, after i.p. treatment day 11 to 16

Compound	%T/C (metastases weight in the treated animals/metastases weight in the controls) [2] [%]	Metastases Weight [2] [mg]	a.p./a.t (number of animals devoid of metastases/ total number of animals) [2]	Metastases Number [2]	Lung Metastases Number %T/C [5] [%]	Lung Metastases Weight [5]	Lung Metastases Weight %T/C [5] [%]	%T/C (metastases weight in the treated animals/metastases weight in the controls) [6] [%]	Metastases Weight [6] [mg]	Metastases Number [6]	also measured
O=C1O[C@H]([C@@H](O)CO)C(O)=C1O [ASC, ascorbic acid]	86	81.5 ± 14	0/6	18.3± 8.6							Body weight (day 12) ([1]; day 12, start of i.p. treatment): 27.6±0.7; Body weight (day 18) ([1]; day 18, after i.p. treatment day 12 to 17): 26.7±1.2
CS(C)=O.[Cl-].[Cl-].[Cl-].[Cl-].[Ru+3].c1c[nH+]c[nH]1.c1c[nH]cn1 [RUT, (ImH)[trans-RuCl4(Me2SO)(Im)]]	16	15.2 ± 2.3	0/6	7.0± 1.9	38	47.6±11.5	25	45	83.6 ± 4.5	27.5±3.0	Body weight (day 12) ([1]; mouse, in vivo, ip): 27.0±0.9; Body weight (day 18) ([1]; mouse, in vivo, ip): 23.3±0.8; % Variation of the primary tumour [3]: -30.3%; Body Weight (day 17) ([4]; mouse, in vivo, ip): 26.5±0.8; Body weight (day 11) ([4]; mouse, in vivo, ip): 30.0±1.0; Spleen weight (day 17) ([4]; mouse, in vivo, ip): 197± 8.8
N[C@@H](CS)C(=O)O [CYST, cysteine]	103	94.6 ± 26	0/6	35.0± 13.5				76	141.2 ± 15.1	30.5±7.2	% variation (body weight) ([4]; body weight variation with respect to the controls, day 11 to 17): -2.5%; Body weight (day 11) ([4]; day 11, start of i.p. treatment): 30.5±0.6; Body Weight (day 17) [4, 7]: 28.8±0.6; Spleen weight (day 17) [4, 7]: 297± 3.3
C[SH](C)(=O)[Ru]([Cl])([Cl])([SH](C)(C)=O)([SH](C)(C)=O)[SH](C)(C)=O [trans-RuCl2(DMSO)4]					82	85.5±19.3	45				
N[C@@H](CCC(=O)N[C@@H](CS)C(=O)NCC(=O)O)C(=O)O [GLU, glutathione]								75	138.8 ± 20.5	47.0±3.9	
